Laboratory results from ChEMBL document CHEMBL5291721, “A preclinical secondary pharmacology resource illuminates target-adverse drug reaction associations of marketed drugs” (Nat Commun, 2023).

What was measured:
[1] = target: T1, 5-hydroxytryptamine receptor 2A (Homo sapiens, UniProt P28223); assay type: functional, cell-based
[2] = target: T2, Gastrin/cholecystokinin type B receptor (Homo sapiens, UniProt P32239)
T2 sequence (P32239 whole entry): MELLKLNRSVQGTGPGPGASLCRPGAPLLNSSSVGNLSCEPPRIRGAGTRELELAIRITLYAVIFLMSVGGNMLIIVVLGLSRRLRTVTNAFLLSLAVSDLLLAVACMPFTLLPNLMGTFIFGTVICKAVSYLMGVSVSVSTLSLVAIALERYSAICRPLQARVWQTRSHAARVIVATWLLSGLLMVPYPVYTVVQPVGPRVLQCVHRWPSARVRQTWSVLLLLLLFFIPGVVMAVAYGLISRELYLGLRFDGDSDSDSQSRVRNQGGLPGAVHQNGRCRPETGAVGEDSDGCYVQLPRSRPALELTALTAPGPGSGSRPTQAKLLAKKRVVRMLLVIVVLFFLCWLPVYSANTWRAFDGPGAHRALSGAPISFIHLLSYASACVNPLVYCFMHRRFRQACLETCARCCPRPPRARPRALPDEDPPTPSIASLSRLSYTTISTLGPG

Endothelin-1 receptor = target: T3, Endothelin-1 receptor (Homo sapiens, UniProt P25101)
T3 sequence (P25101 whole entry): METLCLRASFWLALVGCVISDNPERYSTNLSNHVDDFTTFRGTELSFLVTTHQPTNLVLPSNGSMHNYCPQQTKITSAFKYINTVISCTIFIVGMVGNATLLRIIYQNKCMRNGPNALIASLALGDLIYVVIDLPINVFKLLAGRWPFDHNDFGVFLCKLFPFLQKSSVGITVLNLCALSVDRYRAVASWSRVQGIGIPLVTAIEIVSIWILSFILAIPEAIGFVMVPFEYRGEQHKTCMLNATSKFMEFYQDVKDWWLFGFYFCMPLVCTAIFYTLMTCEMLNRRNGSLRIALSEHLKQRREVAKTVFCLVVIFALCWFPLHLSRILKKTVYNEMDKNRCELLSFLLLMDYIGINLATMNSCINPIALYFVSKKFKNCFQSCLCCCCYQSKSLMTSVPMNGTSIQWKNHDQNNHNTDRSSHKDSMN

[3] = target: T1, 5-hydroxytryptamine receptor 2A; assay type: functional, cell-based; remark: listed apart in the source
Histamine H1 receptor = Histamine H1 receptor (Homo sapiens, UniProt P35367)
[4] = target: Muscarinic acetylcholine receptor M3 (Homo sapiens, UniProt P20309)
Cannabinoid receptor 1 = Cannabinoid receptor 1 (Homo sapiens, UniProt P21554)
[5] = target: T4, Beta-2 adrenergic receptor (Homo sapiens, UniProt P07550)
Histamine H3 receptor = Histamine H3 receptor (Homo sapiens, UniProt Q9Y5N1)
Vasopressin V1a receptor = Vasopressin V1a receptor (Homo sapiens, UniProt P37288)
[6] = target: T5, Alpha-1A adrenergic receptor (Homo sapiens, UniProt P35348)
T5 sequence (P35348 whole entry): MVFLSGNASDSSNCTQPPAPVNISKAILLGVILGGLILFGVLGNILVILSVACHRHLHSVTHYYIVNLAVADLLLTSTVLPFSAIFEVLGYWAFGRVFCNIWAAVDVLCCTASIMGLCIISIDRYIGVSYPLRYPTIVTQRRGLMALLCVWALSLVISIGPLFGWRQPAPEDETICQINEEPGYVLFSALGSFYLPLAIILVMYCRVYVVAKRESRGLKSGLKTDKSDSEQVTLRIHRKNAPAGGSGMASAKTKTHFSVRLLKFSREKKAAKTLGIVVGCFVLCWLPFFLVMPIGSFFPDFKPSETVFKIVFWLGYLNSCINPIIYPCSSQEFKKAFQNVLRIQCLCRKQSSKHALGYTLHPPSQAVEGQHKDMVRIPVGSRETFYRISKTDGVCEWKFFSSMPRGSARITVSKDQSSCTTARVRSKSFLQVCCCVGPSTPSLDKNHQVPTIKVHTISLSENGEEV

Mu-type opioid receptor [7] = target: T6, Mu-type opioid receptor (Homo sapiens, UniProt P35372); experiment: biochemical; assay type: functional
Androgen receptor = target: T7, Androgen receptor (Rattus norvegicus, UniProt P15207); assay type: functional
T7 sequence (P15207 whole entry): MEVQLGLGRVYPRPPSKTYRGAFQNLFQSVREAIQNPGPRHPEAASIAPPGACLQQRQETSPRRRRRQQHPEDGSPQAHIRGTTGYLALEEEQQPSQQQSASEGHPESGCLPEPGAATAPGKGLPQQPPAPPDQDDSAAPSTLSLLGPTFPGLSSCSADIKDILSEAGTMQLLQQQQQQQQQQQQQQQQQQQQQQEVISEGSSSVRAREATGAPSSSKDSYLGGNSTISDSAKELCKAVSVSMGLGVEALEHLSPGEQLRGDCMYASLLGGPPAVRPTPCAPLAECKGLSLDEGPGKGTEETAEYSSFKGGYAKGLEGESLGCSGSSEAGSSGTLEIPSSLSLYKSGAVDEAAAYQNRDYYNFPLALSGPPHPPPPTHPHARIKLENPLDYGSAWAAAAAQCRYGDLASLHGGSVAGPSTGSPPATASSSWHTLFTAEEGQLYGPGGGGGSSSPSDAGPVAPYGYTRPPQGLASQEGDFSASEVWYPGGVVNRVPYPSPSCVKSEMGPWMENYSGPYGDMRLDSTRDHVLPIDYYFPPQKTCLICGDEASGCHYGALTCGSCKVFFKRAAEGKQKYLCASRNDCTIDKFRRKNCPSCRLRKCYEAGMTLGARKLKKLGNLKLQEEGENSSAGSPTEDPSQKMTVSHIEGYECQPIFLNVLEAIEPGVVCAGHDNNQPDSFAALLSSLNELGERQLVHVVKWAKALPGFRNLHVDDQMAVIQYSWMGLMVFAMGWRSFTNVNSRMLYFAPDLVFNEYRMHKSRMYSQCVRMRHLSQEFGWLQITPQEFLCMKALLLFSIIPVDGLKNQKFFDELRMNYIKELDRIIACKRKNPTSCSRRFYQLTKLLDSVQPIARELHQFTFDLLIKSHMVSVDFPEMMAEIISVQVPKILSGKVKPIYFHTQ

[8] = target: T4, Beta-2 adrenergic receptor; assay type: functional, cell-based
Mu-type opioid receptor [9] = target: T6, Mu-type opioid receptor
[10] = target: Gamma-aminobutyric acid receptor subunit alpha-1/alpha-2/beta-2/gamma-2 (Homo sapiens, UniProt P14867+P18507+P47869+P47870); assay type: functional, cell-based

Measured: AC50
Also: assay procedure not described here.

T4 sequence (P07550 whole entry): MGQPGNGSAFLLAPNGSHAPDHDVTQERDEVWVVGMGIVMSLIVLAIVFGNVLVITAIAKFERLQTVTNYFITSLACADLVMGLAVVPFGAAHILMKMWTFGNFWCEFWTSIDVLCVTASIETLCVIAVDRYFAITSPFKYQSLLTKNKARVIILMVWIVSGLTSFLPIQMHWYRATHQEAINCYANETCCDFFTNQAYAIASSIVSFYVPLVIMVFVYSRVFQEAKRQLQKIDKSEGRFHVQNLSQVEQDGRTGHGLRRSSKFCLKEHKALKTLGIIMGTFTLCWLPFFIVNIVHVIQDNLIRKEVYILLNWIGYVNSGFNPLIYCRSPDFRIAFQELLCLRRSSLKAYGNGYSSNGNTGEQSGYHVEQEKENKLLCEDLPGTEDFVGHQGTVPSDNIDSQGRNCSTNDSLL
T1 sequence (P28223 whole entry): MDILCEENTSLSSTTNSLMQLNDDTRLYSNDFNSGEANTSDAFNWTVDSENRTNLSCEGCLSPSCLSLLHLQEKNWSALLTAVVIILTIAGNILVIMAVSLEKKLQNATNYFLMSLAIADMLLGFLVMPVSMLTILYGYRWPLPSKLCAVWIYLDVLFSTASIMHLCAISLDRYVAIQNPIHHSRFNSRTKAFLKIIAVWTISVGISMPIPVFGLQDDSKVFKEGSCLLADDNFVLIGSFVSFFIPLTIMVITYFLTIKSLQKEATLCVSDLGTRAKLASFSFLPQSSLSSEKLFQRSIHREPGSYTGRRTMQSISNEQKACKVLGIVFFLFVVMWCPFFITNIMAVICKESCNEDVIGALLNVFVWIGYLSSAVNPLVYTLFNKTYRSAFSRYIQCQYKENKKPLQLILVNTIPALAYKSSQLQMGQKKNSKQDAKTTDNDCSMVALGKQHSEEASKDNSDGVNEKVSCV
T6 sequence (P35372 whole entry): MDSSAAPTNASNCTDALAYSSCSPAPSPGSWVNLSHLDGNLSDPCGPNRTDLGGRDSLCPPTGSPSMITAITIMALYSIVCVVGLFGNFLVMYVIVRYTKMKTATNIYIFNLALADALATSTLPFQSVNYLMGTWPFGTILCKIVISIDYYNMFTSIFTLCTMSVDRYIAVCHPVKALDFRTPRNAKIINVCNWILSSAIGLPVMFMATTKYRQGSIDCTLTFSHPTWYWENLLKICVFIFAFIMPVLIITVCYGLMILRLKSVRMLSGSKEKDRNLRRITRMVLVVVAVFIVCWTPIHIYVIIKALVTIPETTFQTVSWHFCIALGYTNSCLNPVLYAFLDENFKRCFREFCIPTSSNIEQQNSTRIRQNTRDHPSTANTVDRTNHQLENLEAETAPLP
Sequence of Histamine H3 receptor (Q9Y5N1 whole entry): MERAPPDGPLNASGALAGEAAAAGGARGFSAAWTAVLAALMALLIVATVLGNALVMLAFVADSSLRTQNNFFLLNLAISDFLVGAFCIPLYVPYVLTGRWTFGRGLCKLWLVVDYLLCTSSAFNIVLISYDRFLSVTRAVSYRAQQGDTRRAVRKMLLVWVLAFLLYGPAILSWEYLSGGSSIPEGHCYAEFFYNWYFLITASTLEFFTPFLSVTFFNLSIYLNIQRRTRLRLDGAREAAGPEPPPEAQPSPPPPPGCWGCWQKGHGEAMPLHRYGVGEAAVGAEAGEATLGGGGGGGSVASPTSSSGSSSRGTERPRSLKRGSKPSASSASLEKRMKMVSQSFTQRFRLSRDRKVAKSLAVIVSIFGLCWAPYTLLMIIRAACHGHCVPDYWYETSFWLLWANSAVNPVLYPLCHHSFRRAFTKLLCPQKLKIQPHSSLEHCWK
Sequence of Histamine H1 receptor (P35367 whole entry): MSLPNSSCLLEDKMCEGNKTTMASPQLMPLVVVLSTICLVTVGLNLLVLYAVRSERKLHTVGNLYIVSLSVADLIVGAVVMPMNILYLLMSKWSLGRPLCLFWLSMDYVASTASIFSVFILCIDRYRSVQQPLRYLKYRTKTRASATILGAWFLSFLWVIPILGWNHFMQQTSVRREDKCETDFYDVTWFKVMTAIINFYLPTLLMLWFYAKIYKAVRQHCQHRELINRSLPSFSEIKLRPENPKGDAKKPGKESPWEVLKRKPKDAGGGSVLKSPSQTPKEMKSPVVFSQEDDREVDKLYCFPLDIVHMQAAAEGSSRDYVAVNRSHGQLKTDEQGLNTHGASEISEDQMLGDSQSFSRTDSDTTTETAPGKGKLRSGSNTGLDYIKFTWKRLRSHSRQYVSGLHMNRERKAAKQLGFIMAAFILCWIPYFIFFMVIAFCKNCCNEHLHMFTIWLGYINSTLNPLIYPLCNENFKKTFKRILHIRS
Sequence of Muscarinic acetylcholine receptor M3 (P20309 whole entry): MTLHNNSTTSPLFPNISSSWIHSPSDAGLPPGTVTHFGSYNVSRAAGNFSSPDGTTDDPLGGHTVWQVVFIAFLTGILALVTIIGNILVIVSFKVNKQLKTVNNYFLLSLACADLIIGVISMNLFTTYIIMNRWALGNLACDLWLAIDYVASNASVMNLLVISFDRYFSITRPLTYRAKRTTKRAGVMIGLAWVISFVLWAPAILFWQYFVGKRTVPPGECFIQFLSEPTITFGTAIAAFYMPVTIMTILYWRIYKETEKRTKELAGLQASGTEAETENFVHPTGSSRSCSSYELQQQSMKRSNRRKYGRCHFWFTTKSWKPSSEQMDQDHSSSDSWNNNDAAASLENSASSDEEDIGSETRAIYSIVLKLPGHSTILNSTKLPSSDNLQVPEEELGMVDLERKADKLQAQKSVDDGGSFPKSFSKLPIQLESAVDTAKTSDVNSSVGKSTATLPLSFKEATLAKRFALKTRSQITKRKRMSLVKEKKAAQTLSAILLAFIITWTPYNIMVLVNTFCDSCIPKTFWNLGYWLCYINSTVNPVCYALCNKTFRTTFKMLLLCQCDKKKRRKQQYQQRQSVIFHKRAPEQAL
Sequence of Gamma-aminobutyric acid receptor subunit alpha-1/alpha-2/beta-2/gamma-2 (P14867 whole entry): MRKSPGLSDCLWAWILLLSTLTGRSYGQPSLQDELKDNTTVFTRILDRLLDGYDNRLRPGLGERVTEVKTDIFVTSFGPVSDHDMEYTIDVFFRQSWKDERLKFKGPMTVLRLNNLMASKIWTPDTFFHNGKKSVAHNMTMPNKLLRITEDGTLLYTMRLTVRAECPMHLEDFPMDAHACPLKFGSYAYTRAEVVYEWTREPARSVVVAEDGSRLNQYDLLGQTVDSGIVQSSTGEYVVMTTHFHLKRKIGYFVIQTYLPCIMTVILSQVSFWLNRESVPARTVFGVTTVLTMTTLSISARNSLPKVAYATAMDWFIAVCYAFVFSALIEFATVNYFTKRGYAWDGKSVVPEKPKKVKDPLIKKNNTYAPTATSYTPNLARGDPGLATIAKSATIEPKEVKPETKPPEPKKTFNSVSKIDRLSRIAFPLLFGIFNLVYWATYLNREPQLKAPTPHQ
Sequence of Gamma-aminobutyric acid receptor subunit alpha-1/alpha-2/beta-2/gamma-2 (P47870 whole entry): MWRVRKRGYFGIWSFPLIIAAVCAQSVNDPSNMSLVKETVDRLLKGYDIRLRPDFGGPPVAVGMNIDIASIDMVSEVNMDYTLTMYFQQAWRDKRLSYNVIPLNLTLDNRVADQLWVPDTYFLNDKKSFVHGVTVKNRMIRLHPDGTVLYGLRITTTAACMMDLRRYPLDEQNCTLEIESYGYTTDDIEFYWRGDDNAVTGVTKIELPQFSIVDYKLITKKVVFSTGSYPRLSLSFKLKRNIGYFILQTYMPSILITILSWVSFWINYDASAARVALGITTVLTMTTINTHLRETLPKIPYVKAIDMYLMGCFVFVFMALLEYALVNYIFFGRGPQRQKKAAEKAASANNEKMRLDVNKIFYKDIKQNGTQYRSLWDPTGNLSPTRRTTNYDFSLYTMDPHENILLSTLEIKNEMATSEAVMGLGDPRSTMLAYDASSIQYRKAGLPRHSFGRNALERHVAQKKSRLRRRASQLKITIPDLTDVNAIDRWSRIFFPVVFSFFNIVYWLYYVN
Sequence of Gamma-aminobutyric acid receptor subunit alpha-1/alpha-2/beta-2/gamma-2 (P18507 whole entry): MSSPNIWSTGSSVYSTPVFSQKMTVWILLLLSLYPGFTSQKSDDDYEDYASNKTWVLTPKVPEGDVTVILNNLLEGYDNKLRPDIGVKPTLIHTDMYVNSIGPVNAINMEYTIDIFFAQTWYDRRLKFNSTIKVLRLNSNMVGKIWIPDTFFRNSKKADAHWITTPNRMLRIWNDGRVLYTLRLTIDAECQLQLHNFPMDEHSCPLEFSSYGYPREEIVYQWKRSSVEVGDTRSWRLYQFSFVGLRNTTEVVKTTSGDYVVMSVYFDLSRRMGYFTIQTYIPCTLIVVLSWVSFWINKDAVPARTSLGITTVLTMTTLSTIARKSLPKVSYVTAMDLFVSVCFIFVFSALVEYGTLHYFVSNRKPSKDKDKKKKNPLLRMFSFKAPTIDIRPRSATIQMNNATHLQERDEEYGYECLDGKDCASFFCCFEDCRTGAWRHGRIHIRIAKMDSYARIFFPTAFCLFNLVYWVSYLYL
Sequence of Gamma-aminobutyric acid receptor subunit alpha-1/alpha-2/beta-2/gamma-2 (P47869 whole entry): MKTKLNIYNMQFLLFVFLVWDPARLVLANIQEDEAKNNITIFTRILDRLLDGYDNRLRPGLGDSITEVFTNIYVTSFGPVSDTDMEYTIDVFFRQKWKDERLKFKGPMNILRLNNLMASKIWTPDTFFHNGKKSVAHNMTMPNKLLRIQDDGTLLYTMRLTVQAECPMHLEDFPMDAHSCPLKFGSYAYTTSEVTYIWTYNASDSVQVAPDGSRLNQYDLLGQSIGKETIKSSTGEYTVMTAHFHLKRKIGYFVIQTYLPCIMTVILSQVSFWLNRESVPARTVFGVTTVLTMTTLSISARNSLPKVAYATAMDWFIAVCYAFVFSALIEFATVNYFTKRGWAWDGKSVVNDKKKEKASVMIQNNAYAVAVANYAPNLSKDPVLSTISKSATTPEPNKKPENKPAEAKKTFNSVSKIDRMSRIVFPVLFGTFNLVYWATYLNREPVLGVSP

O=C1C(O)=C([C@H]2CC[C@H](c3ccc(Cl)cc3)CC2)C(=O)c2ccccc21 [ATOVAQUONE]
not listed: [8] | Mu-type opioid receptor [9] | [10]
> 30 µM: all other assays above

Cc1cc(C(C)(C)C)c(O)c(C)c1CC1=NCCN1 [OXYMETAZOLINE]
> 30 µM: [8] | Mu-type opioid receptor [9] | [10] | Androgen receptor

CC1(C)CCC(CN2CCN(c3ccc(C(=O)NS(=O)(=O)c4ccc(NCC5CCOCC5)c([N+](=O)[O-])c4)c(Oc4cnc5[nH]ccc5c4)c3)CC2)=C(c2ccc(Cl)cc2)C1 [VENETOCLAX]
> 30 µM: [8] | Histamine H1 receptor | Androgen receptor

C[C@@H]1O[C@@H](O[C@@H]2C=C3CC[C@@H]4[C@H](CC[C@]5(C)[C@@H](c6ccc(=O)oc6)CC[C@]45O)[C@@]3(C)CC2)[C@H](O)[C@H](O)[C@H]1O [PROSCILLARIDIN]
> 30 µM: [2] | Endothelin-1 receptor | [8] | Histamine H3 receptor | Mu-type opioid receptor [7] | Androgen receptor

NC(=O)CN1CC(O)CC1=O (centres undefined) [OXIRACETAM]
not listed: Cannabinoid receptor 1 | [5] | Mu-type opioid receptor [9]
> 30 µM: all other assays above
